In ChEMBL document CHEMBL4251565, “Functionalized 2,1-benzothiazine 2,2-dioxides as new inhibitors of Dengue NS5 RNA-dependent RNA polymerase” (Eur J Med Chem, 2018):
Activity calls are given as the source filed them. The rule behind the calls is not given here.

Experiments:
[1] = test system: Zika virus; assay: Antiviral activity against Zika virus clinical strain infected in African green monkey Vero E6 cells assessed as decrease in viral RNA levels up to 20 uM by qRT-PCR method; assay type: functional, organism-based; details: Vero C1008
[2] = test system: West Nile virus; assay: Antiviral activity against WNV clinical strain infected in African green monkey Vero E6 cells assessed as decrease in viral RNA levels up to 20 uM by qRT-PCR method; assay type: functional, organism-based; details: Vero C1008
[3] = test system: dengue virus type 2; assay: Antiviral activity against DENV2 clinical strain infected in African green monkey Vero E6 cells assessed as decrease in viral RNA levels up to 20 uM by qRT-PCR method; assay type: functional, organism-based; details: Vero C1008
[4] = test system: dengue virus type 3; assay: Antiviral activity against DENV3 clinical strain infected in African green monkey Vero E6 cells assessed as decrease in viral RNA levels up to 20 uM by qRT-PCR method; assay type: functional, organism-based; details: Vero C1008
[5] = molecular target: Nonstructural protein 5 (Dengue virus) (UniProt V5TFZ2); assay: Binding affinity to DENV3 NT-647-NHS labeled NS5 RdRp after 1 hr in presence of ss-RNA PolyC as template and GTP as substrate by microscale thermophoresis method; details: dengue virus type 3
[6] = molecular target: Nonstructural protein 5 (Dengue virus) (UniProt V5TFZ2); assay: Inhibition of DENV3 NS5 RdRp using ss-RNA PolyC as template and GTP as substrate assessed as decrease in dsRNA levels after 1 hr in presence of tritonX100 by PicoGreen-based fluorescence assay; details: dengue virus type 3
[7] = test system: O=C(OC1=CS(=O)(=O)Nc2ccc(Oc3ccccc3Br)cc21)c1ccc(F)c(F)c1; assay: Mixed type inhibition of DENV3 NS5 RdRp using increasing concentration of GTP as substrate assessed as enzyme Vmax after 1 hr in presence of ss-RNA PolyC template by Lineweaver-Burk double reciprocal plot analysis; details: dengue virus type 3
[8] = test system: O=C(OC1=CS(=O)(=O)Nc2ccc(Oc3ccccc3Br)cc21)c1ccc(F)c(F)c1; assay: Mixed type inhibition of DENV3 NS5 RdRp using increasing concentration of ss-RNA PolyC as template assessed as enzyme Vmax after 1 hr in presence of GTP substrate by Lineweaver-Burk double reciprocal plot analysis; details: dengue virus type 3
[9] = test system: O=C(OC1=CS(=O)(=O)Nc2ccc(Oc3ccccc3Br)cc21)c1ccc(F)c(F)c1; assay: Mixed type inhibition of DENV3 NS5 RdRp using increasing concentration of ss-RNA PolyC as template assessed as Km for substrate after 1 hr in presence of GTP substrate after 1 hr by Lineweaver-Burk double reciprocal plot analysis; details: dengue virus type 3
[10] = test system: O=C(OC1=CS(=O)(=O)Nc2ccc(Oc3ccccc3Br)cc21)c1ccc(F)c(F)c1; assay: Mixed type inhibition of DENV3 NS5 RdRp using increasing concentration of GTP as substrate assessed as Km for substrate after 1 hr in presence of ss-RNA PolyC template by Lineweaver-Burk double reciprocal plot analysis; details: dengue virus type 3

Compound	Activity [1]	Activity [2]	Activity [3]	Activity [4]	Activity [5]	inhibition [6]	Vmax [7] [nM/min]	Vmax [8] [nM/min]	Km [9] [µM]	Km [10] [µM]
O=C(OC1=CS(=O)(=O)Nc2ccc(Oc3ccccc3Br)cc21)c1ccc(F)c(F)c1	inactive	inactive	inactive	inactive	Active	Active				
Nonstructural protein 5 (Dengue virus), V5TFZ2							15.8	23.2	0.907	5.29
